Reference: US20160279190A1, “MODULATION OF AXON DEGENERATION” (GENENTECH, INC., priority 2008, published 2016)

Tested on: DRGs
Assay: Campenot chamber local axon degeneration, anti-NGF in axon compartment
Format: cell-based, mouse
Conditions: inhibitor 15 μM; anti-NGF in axon compartment, 28 hours
Experimental: Teflon dividers (Tyler Research) were cleaned by washing in water and wiping them clean of any residual grease. Dividers were then soaked in Nochromix (Godax Laboratories)/sulfuric acid overnight, rinsed five times in distilled and autoclaved water (SQ water), boiled for 30 minutes, and then air-dried before use.
Mouse laminin (5 μg/ml in sterile filtered water; Invitrogen) was added to PDL coated 35 mm dishes (BD Biosciences) and they were incubated for 1 hour at 37° C., followed by two rinses in SQ water. The dishes were vacuum-dried and then air-dried in a laminar flow hood for 15 minutes. Prepared dishes were then scored with a pin rake (Tyler Research). […] High vacuum grease (VWR) was added to each Teflon divider under a dissection scope. The laminin coated PDL dishes were inverted and dropped onto the Teflon divider, with additional pressure added by use of a toothpick in the non-track-containing regions. Dishes were incubated for 1 hour at 37° C. Five hundred microliters of NBM+MC (50 ng/ml NGF) solution was added to each of the side compartments, and a grease barrier was added in front of the center cell slot.
Free E13.5 spinal cords were dissected from mouse embryos and placed into NBM+MC (25 ng/ml NGF) solution. DRGs were detached from the spinal cord with a tungsten needle. An NBM+MC-lubricated P200 pipette was used to move DRGs into a 1.5 ml tube. DRGs were pelleted with a tabletop centrifuge for 30 seconds. The supernate was discarded and 0.05% Trypsin/EDTA (cold) was added. The pellet was resolubilized with a pipette and incubated at 37° C. for 15 minutes with constant agitation (650 RPM). The sample was again centrifuged and the supernate discarded. The pellet was resuspended in warm NBM+MC (50 ng/ml NGF) solution and triturated with a flamed glass pipette 20 times, followed by trituration with a fire-bored glass pipette another 20 times. The samples were again centrifuged and the resulting pellets were resuspended in 0.5 ml NBM+MC (50 ng/ml NGF) solution. The cells were diluted to a final concentration of 2.5×10^6 cells/ml. The cell suspensions were loaded into a 1 ml syringe with a 22 gauge needle. The center slot of the Campenot divider was filled using the syringe (to a volume of at least 50 μl). The Campenot chamber was incubated overnight at 37° C. 2.5 ml NGF+MC (50 ng/ml NGF) solution was added to the center compartment and the grease gate was removed. The outer medium (cell body compartment) was replaced after three days with 2.5 ml NBM+MC medium (with 25 ng/ml NGF). After five days in culture, one distal compartment was washed three times with warmed NBM+MC (no NGF) solution. After the third wash, 500 μl NBM+MC (no NGF) solution was added to the axon compartment in combination with either 0.5% DMSO or an inhibitor. The cell body compartment was replaced with 2.5 ml NBM+MC medium (with 25 ng/ml NGF) containing either 0.5% DMSO or inhibitor.
After 28 hours of anti-NGF antibody treatment, 8% PFA/30% sucrose solution (see above) was added directly to the culture medium at a 1:1 dilution and incubated for 30 minutes. The Teflon divider was removed after the first 15 minutes of addition. The system was washed once with 2.5 ml PBS prior to immunostaining. Neurons were blocked in 5% BSA/0.2% triton in PBS for 30 minutes. The primary antibody Tuj1 (Covance) was added to a final dilution of 1:1000 in PBS containing 2% BSA and incubated overnight at 4° C. The dish was washed once with PBS. […] The dish was washed twice with PBS, and a 22×22 mm coverslip (VWR) was added with 350 μl of fluoromount G (Electron Microscopy Sciences). The neurons were visualized by use of a fluorescence microscope.
As described above, E13.5 DRGs were isolated and grown for 5 days in a Campenot chamber.

SMILES: O=C(O)c1ccc2c3c1cccc3c(=O)n1c3ccccc3nc21 [STO-609]
- Axon Compartment (axon protected when inhibitor is in axon compartment): Yes (1)
- Cell Body Compartment (axon protected when inhibitor is in cell body compartment): No (1)
